From ChEMBL document CHEMBL3714730, “Diaminopyrimidines as P2X3 and P2X2/3 modulators” (2009) come the findings set out here.

For experiment [1], the target named is P2X2/P2X3 heterotrimeric receptor (Homo sapiens) (UniProt Q9UBL9+P56373). Description: Antagonist activity against human P2X2/3 receptor expressed in CHOK1 cells assessed as inhibition of alpha,beta-meATP-induced calcium response incubated for 20 mins by Fluo-3AM dye based FLIPR assay. In kind it is functional, cell-based. The following applies: CHO-K1.
In experiment [2] the target is T1, P2X purinoceptor 3 (Rattus norvegicus) (UniProt P49654).
T1 sequence (whole entry): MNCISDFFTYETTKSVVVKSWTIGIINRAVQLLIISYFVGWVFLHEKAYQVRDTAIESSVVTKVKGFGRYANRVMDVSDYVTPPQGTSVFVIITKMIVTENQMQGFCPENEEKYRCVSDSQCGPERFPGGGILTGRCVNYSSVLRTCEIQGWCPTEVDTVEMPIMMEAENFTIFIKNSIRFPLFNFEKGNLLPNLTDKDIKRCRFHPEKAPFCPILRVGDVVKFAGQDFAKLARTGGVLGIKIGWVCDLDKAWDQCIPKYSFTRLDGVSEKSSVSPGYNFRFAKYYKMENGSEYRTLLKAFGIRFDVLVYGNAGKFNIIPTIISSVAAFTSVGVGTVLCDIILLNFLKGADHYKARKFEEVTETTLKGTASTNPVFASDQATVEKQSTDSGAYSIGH
Description: Antagonist activity against rat P2X3 receptor expressed in CHOK1 cells assessed as inhibition of alpha,beta-meATP-induced calcium response incubated for 20 mins by Fluo-3AM dye based FLIPR assay. In kind it is functional, cell-based. The following applies: CHO-K1.

Structures are written as SMILES. Active and inactive are the calls of the source. No cut-off for these calls is given here.

Consider `C#Cc1cc(Cc2cnc(N)nc2N)c(C(C)C)cc1OC`, for which the inhibition entry in experiment [1] and in experiment [2] was “Active” in each case.
Regarding `COCC#Cc1cc(Oc2cnc(N)nc2N)c(C(C)C)cc1OC`, the inhibition entry in experiment [1] and in experiment [2] was “Active” throughout.
In the case of `C#Cc1ccc(C(C)C)c(Oc2cnc(N)nc2N)c1`, the inhibition result in experiment [1] and in experiment [2] was “Active” in each case.
`COc1cc(C(C)C)c(Oc2cnc(N)nc2N)cc1C#Cc1ccncc1`: the inhibition result in experiment [1] and in experiment [2] was “Active” throughout.
For `C#Cc1cc(Oc2cnc(NCCN(C)C)nc2N)c(C(C)C)cc1OC`, the inhibition result in experiment [1] and in experiment [2] was “Active” each time.
As to `COc1cc(C(C)C)c(Oc2cnc(N)nc2N)cc1C#CCCO`, the inhibition entry in experiment [1] and in experiment [2] was “Active” throughout.
As to `C#Cc1cc(Oc2cnc(N)nc2N)c(C(C)C)cc1OCc1cccc(F)c1`, the inhibition entry in experiment [1] and in experiment [2] was “Active” throughout.
On to `C#Cc1cc(OC)c(C(C)C)c(Oc2cnc(N)nc2N)c1`, for which the inhibition entry in experiment [1] and in experiment [2] was “Active” in each case.
In the case of `C#Cc1cc(Oc2cnc(N)nc2N)c(C(C)C)cc1F`, the inhibition entry in experiment [1] and in experiment [2] was “Active” each time.
As to `COc1cc(C(C)C)c(Oc2cnc(N)nc2N)cc1C#Cc1ccccc1`, the inhibition entry in experiment [1] and in experiment [2] was “Active” each time.
Regarding `C#Cc1cc(Oc2cnc(NCCCO)nc2N)c(C(C)C)cc1OC`, the inhibition entry in experiment [1] and in experiment [2] was “Active” throughout.
Regarding `C#Cc1cc(Oc2cnc(NC(C)CO)nc2N)c(C(C)C)cc1OC` (configuration not stated), the inhibition entry in experiment [1] and in experiment [2] was “Active” throughout.
Take `C#Cc1cc(Oc2cnc(NCCO)nc2N)c(C(C)C)cc1OC`: the inhibition entry in experiment [1] and in experiment [2] was “Active” in each case.
For `C#Cc1cc(Oc2cnc(NCC(C)O)nc2N)c(C(C)C)cc1OC` (configuration not stated), the inhibition entry in experiment [1] and in experiment [2] was “Active” throughout.
As for `COc1cc(I)cc(Oc2cnc(N)nc2N)c1C(C)C`, the inhibition entry in experiment [1] and in experiment [2] was “Active” each time.
In the case of `COc1cc(C(C)C)c(Oc2cnc(N)nc2N)cc1C#Cc1cncn1C`, the inhibition entry in experiment [1] and in experiment [2] was “Active” each time.
Turning to `COc1cc(C(C)C)c(Oc2cnc(N)nc2N)cc1C#C[Si](C)(C)C`, the inhibition result in experiment [1] and in experiment [2] was “Active” in each case.
For the molecule `CNCC#Cc1cc(Oc2cnc(N)nc2N)c(C(C)C)cc1OC`, the inhibition result in experiment [1] and in experiment [2] was “Active” throughout.
On to `C#Cc1cc(Oc2cnc(N)nc2N)c(C#C)cc1OC`, for which the inhibition result in experiment [1] and in experiment [2] was “Active” throughout.
In the case of `COc1cc(C(C)C)c(Oc2cnc(N)nc2N)cc1C#Cc1ccsc1`, the inhibition entry in experiment [1] and in experiment [2] was “Active” each time.
On to `C#Cc1ccc(C#C)c(Oc2cnc(N)nc2N)c1`, for which the inhibition result in experiment [1] and in experiment [2] was “Active” in each case.
For `C#Cc1cc(Oc2cnc(NC3CCN(S(C)(=O)=O)CC3)nc2N)c(C(C)C)cc1OC`, the inhibition entry in experiment [1] and in experiment [2] was “Active” in each case.
In the case of `C#Cc1ccc(I)c(Oc2cnc(N)nc2N)c1`, the inhibition result in experiment [1] and in experiment [2] was “Active” throughout.
In the case of `C#Cc1cc(Oc2cnc(NCCN3CCCCC3)nc2N)c(C(C)C)cc1OC`, the inhibition result in experiment [1] and in experiment [2] was “Active” each time.
On to `CC#Cc1cc(Oc2cnc(N)nc2N)c(C(C)C)cc1OC`, for which the inhibition result in experiment [1] and in experiment [2] was “Active” throughout.
As to `CC#Cc1cc(Oc2cnc(N)nc2N)c(C(C)C)cc1F`, the inhibition result in experiment [1] and in experiment [2] was “Active” throughout.
For the molecule `C#Cc1cc(Oc2cnc(N)nc2N)c(C(C)C)cc1OCCO`, the inhibition result in experiment [1] and in experiment [2] was “Active” each time.
Take `C#Cc1cc(Oc2cnc(NCCN3CCOCC3)nc2N)c(C(C)C)cc1OC`: the inhibition result in experiment [1] and in experiment [2] was “Active” in each case.
As for `C#Cc1cc(Oc2cnc(NC(CO)CO)nc2N)c(C(C)C)cc1OC`, the inhibition entry in experiment [1] and in experiment [2] was “Active” each time.
Regarding `C#Cc1cc(OC)c(I)cc1Oc1cnc(N)nc1N`, the inhibition entry in experiment [1] and in experiment [2] was “Active” throughout.
Take `C#Cc1cc(Oc2cnc(NC3CCOCC3)nc2N)c(C(C)C)cc1OC`: the inhibition result in experiment [1] and in experiment [2] was “Active” each time.
For `C#Cc1cc(Oc2cnc(N)nc2N)c(C(C)C)cc1Cl`, the inhibition result in experiment [1] and in experiment [2] was “Active” in each case.
With `COc1cc(C(C)C)c(Oc2cnc(N)nc2N)cc1C#CCCCO`, the inhibition result in experiment [1] and in experiment [2] was “Active” throughout.
As to `CCCC#Cc1cc(Oc2cnc(N)nc2N)c(C(C)C)cc1OC`, the inhibition result in experiment [1] and in experiment [2] was “Active” throughout.
`COc1cc(C(C)C)c(Oc2cnc(N)nc2N)cc1C#CCO`: the inhibition entry in experiment [1] and in experiment [2] was “Active” in each case.
As for `COc1cc(C(C)C)c(Oc2cnc(N)nc2N)cc1C#CCCC#N`, the inhibition entry in experiment [1] and in experiment [2] was “Active” throughout.
In the case of `COc1cc(C(C)C)c(Oc2cnc(N)nc2N)cc1C#Cc1ccccn1`, the inhibition result in experiment [1] and in experiment [2] was “Active” in each case.
Take `COc1cc(C(C)C)c(Oc2cnc(N)nc2N)cc1C#CC1CC1`: the inhibition entry in experiment [1] and in experiment [2] was “Active” each time.
As to `COc1cc(C(C)C)c(Oc2cnc(N)nc2N)cc1C#Cc1cccnc1`, the inhibition result in experiment [1] and in experiment [2] was “Active” throughout.
Regarding `C#Cc1cc(Oc2cnc(N)nc2N)c(CC)cc1OC`, the inhibition result in experiment [1] and in experiment [2] was “Active” each time.
Regarding `C#Cc1cc(Oc2cnc(N)nc2N)c(C(C)C)cc1OC`, the inhibition entry in experiment [1] and in experiment [2] was “Active” in each case.
